The values below come from patent US12630527B2, “Broad spectrum anti-cancer compounds” (The Regents of the University of California, priority 2019, dated 2026).

Structures are written as SMILES. Entries after “also recorded” stand apart in the source; their conditions may differ.

Data set [1] is described as follows: QikProp calculation of clogP and membrane permeability (Caco-2, MDCK models). To be noted: predicted permeability models; fold. How it is done: In order to identify chemically distinct inhibitors of FTO, we used a combination of structure-based drug design and molecular docking with the Schrödinger software suite to target the MA binding site of FTO. […] Interactions with these four residues were considered highly favorable. […] Docking poses for FTO-1-20 are in the supporting information (FIGS. 32-51). Hits showing promising docking scores (absolute value ≥7) were also analyzed by QikProp to assess their physicochemical properties. As existing FTO inhibitors fail to progress to clinical applications due to poor pharmacokinetic profiles, it was important to filter our screen for compounds with more favorable physicochemical properties. […] These criteria were selected due to multiple studies indicating compounds with low molecular weight and moderate lipophilicity are more likely to show favorable adsorption and clearance rates, and less toxicity due to target promiscuity. As such, controlling the physicochemical properties of inhibitors during the initial screening stages should select for better leads for future optimization and development. Based on these criteria, the top 20 inhibitors were selected for synthesis (Table S1). These parameters were also calculated for MA, FB23-2 and its precursor FB23 (Table S2). […]

The test system of the next data set is MONOMAC6 and NB4 cells. The conditions noted are these: fold, Huang et. al; cited from earlier work.
Data set [2] concerns the target T1, FTO (Homo sapiens, UniProt Q9C0B1).
T1 construct: SUMO (N); His10 (N); made in house; host or cells: E. coli BL21
The conditions noted are these: reported (ref. 36); stated as selectivity against ALKBH5; cited from earlier work.

In a further data set the test system is GBM-GSC-23. The data set is described as follows: Tumorosphere (neurosphere) formation assay, GBM-GSC-23. Type of data set: cell-based, human. To be noted: 20 μM, 2 days, listed as FTO-04.
Data set [3] deals with m6A mRNA levels in TS576 cells. The data set is described as follows: m6A dot blot assay on poly(A)+ mRNA. To be noted: vs DMSO control, does not distinguish m6A and m6Am. It is filed as cell-based, human. How it is done: Next, we sought to determine if FTO-04 was able to alter m6A levels in purified mRNA from GSCs by m6A dot blot assay. TS576 cells were treated with 2, 10, and 50 ng shControl or shFTO to establish the relative change in m6A mRNA levels due to FTO knockdown. […] TS576 cells were then treated with 2, 10, and 50 ng of either DMSO or FTO-04 (FIG. 59B).
Polyadenylated mRNA were isolated from TS576 cells treated with either DMSO, FTO-04 (30 μM), and control (shControl) or FTO lentivirus (shFTO) knockdown samples by using Magnetic mRNA Isolation Kit (New England Biolabs, S1550S). Isolated mRNA was quantified, serially diluted and denatured at 95° C. for 3 min, then chilled on ice to prevent reformation of secondary structure of mRNA. Denatured mRNA samples were spotted on an Amersham Hybond-N^+ membrane (GE Healthcare, RPN3050B) and cross-linked to the membrane with UV radiation. After crosslinking the membrane was washed with phosphate buffer saline with 0.1% tween-20 (PBST) and blocked in 5% of non-fat milk in PBST buffer, and then incubated with anti-m^6A antibody (1:1000; abcam) overnight at 4° C. The membrane was then washed as before and incubated in HRP-conjugated secondary antibodies for 1 h at room temperature. The membrane was then developed with Thermo ECL SuperSignal West Femto Maximum Sensitivity Substrate (Thermo Fisher Scientific).

The test system of data set [4] is TS576 glioblastoma stem cells. In words: Tumorosphere (neurosphere) formation assay, TS576. The conditions noted are these: 2 days. Type of data set: cell-based, human. How it is done: (§1) To understand the effects of our FTO inhibitors on the self-renewal properties of GSCs, tumorospheres cultured from the patient-derived GSC line TS576 were treated with 30 μM of FTO-04, FTO-10, FTO-11, or FTO-12 (FIG. 29A-29B; cell line gifted from the Furnari lab).^45, 46 The GSCs were cultured in sphere-forming assays for 24 hours, then treated with either inhibitors or DMSO control for 2 days. The size of the tumorospheres was calculated using ImageJ.
(§2) Early passaged GSCs were used to understand the efficacy of ALK-04 on the self-renewal capacity of GSCs by tumorsphere-formation assay as described earlier^10, 11. In brief, GSCs were seeded at 4×10^4 cells in 24 well plate and cultured for 3 days followed by treatment with ALK-04 inhibitors at 20 μM daily for 3 days. After 3 days of treatment the images of the tumorospheres were imaged with phase contrast microscope and size was measured with Image J, to understand the effects of drugs on the self-renewal of GSCs on sphere formation. This process was also repeated for healthy neural stem cells (hNSCs) treated daily with 20 μM ALK-04 for three days to assess the therapeutic ratio.

Data set [5] has as its target T1, FTO. In words: Fluorescence enzymatic inhibition assay (m6A7-Broccoli / DFHBI-1T), FTO. It is filed as biochemical. The conditions noted are these: fold more potent than MA (IC50=12.5). The procedure:
In order to determine their efficacy as FTO inhibitors, the compounds were screened by a fluorescence enzymatic inhibition assay developed previously by the Jaffrey lab.^44 Briefly, a nonfluorescent methylated RNA substrate termed “m6A7-Broccoli” is incubated with FTO in the presence of 2-oxoglutarate (300 μM), (NH4)2Fe(SO4)2·6H2O (300 μM), and L-ascorbate (2 mM) for 2 hours at room temperature in reaction buffer (50 mM NaHEPES, pH 6).
E. coli BL21 competent cells (New England Biolabs) were transformed with pET28-SUMO-His10-FTO plasmid (a generous gift from the Jaffrey lab) by heat shock and spread on a LB Kanamycin agar plate, then incubated overnight at 37° C. 2-3 colonies were picked and transferred to 5 mL of LB media treated with kanamycin (0.5 mg mL^−1 final concentration), then grown overnight shaking at 37° C. The overnight culture was then transferred to 2 L of LB kanamycin media and incubated at 37° C. until OD 0.8. The culture was cooled at 4° C. for 20 mins and induced with 0.5 mM isopropyl β-D-1-thiogalactopyranoside (IPTG), then grown shaken at 16° C. Cell pellets were collected by centrifugation (5,000 g for 10 min at 4° C.) and the supernatant was discarded. The pellets were resuspended in B-PER Bacterial Protein Extraction Reagent (6 mL per gram) with DNase 1 (5 U per mL, RNase-free) and incubated at 4° C. for 1 hour. The suspension was centrifuged at 10,000 g for 20 min and the supernatant was transferred to a Talon Metal Affinity Resin column that had been pre-equilibrized with binding buffer (50 mM NaH2PO4 pH 7.2, 300 mM NaCl, 20 mM imidazole, 1 mM β-mercaptoethanol in RNase-free water). […] The eluant was combined and transferred to a Slyde-A-Lyzer Dialysis Cassette (20,000 MWCO, Thermo Scientific) and dialyzed overnight at 4° C. against dialysis buffer (50 mM Tris-HCl pH 7.4, 100 mM NaCl, 5 mM B-mercaptoethanol, 5% (v/v) glycerol in RNase-free water). […] ALKBH5 was expressed and purified from pET28-SUMO-His10-ALKBH5 plasmid by the same procedure described above.
Inhibitors were added in concentrations ranging from 0.008-40 μM; all inhibitors were dissolved in DMSO and added to a final concentration of 0.2% DMSO. […] After incubation at room temperature for 2 hours, the plates were left at 4° C. overnight (16 hours) to allow DFHBI-1T to bind to A7-Broccoli RNA. […] Sigmoidal dose-response curves were fitted in GraphPad Prism 6. All assays were performed in triplicate, with additional repetitions added as necessary.

In another data set the test system is GBM-6. The data set is described as follows: Tumorosphere (neurosphere) formation assay, GBM-6. To be noted: GBM-6, 20 μM, 2 days; listed as FTO-04. It is filed as cell-based, human.
The test system of data set [6] is human neural stem cells (hNSC). In words: Neurosphere formation assay, healthy neural stem cells. It is filed as cell-based. To be noted: healthy neural stem cells (hNSCs), 20 μM; listed as FTO-04. How it is done: as §1, §2
Data set [7] deals with T1, FTO. In words: Steady-state (Michaelis-Menten) inhibition kinetics, FTO. To be noted: velocity and double-reciprocal plots; 0-40 μM inhibitor, 0-10 μM substrate; listed as FTO-04. Type of data set: biochemical.

T1 sequence (Q9C0B1 whole entry): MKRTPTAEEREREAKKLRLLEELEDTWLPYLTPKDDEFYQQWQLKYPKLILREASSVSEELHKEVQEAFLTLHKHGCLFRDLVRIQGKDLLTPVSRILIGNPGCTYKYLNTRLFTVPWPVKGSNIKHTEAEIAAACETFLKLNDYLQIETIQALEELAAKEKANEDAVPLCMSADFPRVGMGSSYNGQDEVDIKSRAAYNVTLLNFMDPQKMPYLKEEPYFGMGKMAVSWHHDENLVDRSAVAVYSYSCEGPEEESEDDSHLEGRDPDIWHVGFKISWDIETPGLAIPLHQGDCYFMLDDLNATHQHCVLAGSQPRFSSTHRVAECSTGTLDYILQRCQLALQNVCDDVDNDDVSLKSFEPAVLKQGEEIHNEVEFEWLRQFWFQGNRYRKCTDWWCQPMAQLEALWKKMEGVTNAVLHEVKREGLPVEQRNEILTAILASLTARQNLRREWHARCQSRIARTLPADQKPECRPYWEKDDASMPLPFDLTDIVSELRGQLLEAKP

As to `Cc1noc(C)c1-c1cc(Cl)c(Nc2ccccc2C(=O)NO)c(Cl)c1` [FB23-2], the “estimated rate of passive diffusion relative to FB23” value in data set [1] is on record as around 2.5. Also, the “cellular concentration relative to FB23” value in the data set on MONOMAC6 and NB4 cells is listed as 3-10. Besides, on FTO [2], the “inhibition of FTO at 50 μM” value is given as “little to no inhibition”.

In the case of `COc1ncc(-c2ccc3nc(N)sc3c2)cn1` [FTO-4, 6-(2-methoxypyrimidin-5-yl)benzo[d]thiazol-2-amine], the size of tumorospheres result with GBM-GSC-23 is listed as “inhibits GSC neurospheres formation; also recorded: significantly decrease the size of tumorospheres”; in data set [4] (TS576, 20 μM, listed as FTO-04), “inhibits GSC neurospheres formation; also recorded: significantly decrease the size of tumorospheres”; in data set [4] (TS576, 30 μM, vs vehicle control) it was “significant reduction in size of the tumorospheres”; with GBM-6, “inhibits GSC neurospheres formation; also recorded: significantly decrease the size of tumorospheres”. Moreover, the “m6A mRNA levels” value in [3] is listed as “increase m6A mRNA levels significantly compared to DMSO control”. Also, the “potency against FTO relative to MA” value on FTO [5] is reported as “approximately 4”. In addition, in data set [6], the neurosphere size entry is on record as “without impairing hNSC neurosphere growth; also recorded: no alteration in neurosphere size”. On FTO [7], the “mechanism of inhibition of FTO” value is on record as “competitive inhibitor; also recorded: competitive mechanism of inhibition”.
